Data taken from patent publication US6610706B1, “Crystalline form of 6-hydroxy-3-(4-[2-(piperidin-1-yl)ethoxy]phenoxy)-2-(4-methoxyphenyl)benzo[b]thiophene hydrochloride” (Eli Lilly and Company, priority 1999, dated 2003).

Assays:
Assay type in all cases: physicochemical
[1] = Hygroscopicity / moisture sorption isotherms (VTI vacuum moisture balance)
Protocol: Hygroscopicicity studies were performed on F-I and F-III. Upon initial exposure of the samples to approximately 5% RH, there was an immediate weight gain of 1.5% and 1.7% moisture for F-I and F-III, respectively, equivalent to approximately 0.5 mole of water. Both forms show a continuous sorption of moisture through the entire humidity range, which is likely due to incorporation of water molecules in the lattices. The moisture sorption profiles for F-I and F-III reveal that these forms are essentially non-stoichiometric hydrates. At ambient relative humidity (about 50% RH), F-I contains approximately 1.7% water, corresponding to 0.5 moles of water, while F-III has sorbed about 3.0% water which corresponds to about 0.85 moles of water. The bulk forms of F-I and F-III rapidly equilibrate with the atmosphere, so that the water content observed by analytical techniques is a reflection of the relative humidity at the time of data collection. Lot-to-lot differences observed in the DSC data likely results from the samples being hydrated to different extents due to different ambient storage conditions. Hygroscopicity measurements were made for F-I and F-III using the VTI method as follows. Each sample was dried under vacuum at 60° C. until no further weight loss was detected, at which time the sample chamber was brought to 0% relative humidity. Moisture sorption isotherms were obtained at 25° C. using a VTI vacuum moisture balance with the following conditions: sample size 10-15 mg, adsorption/desorption range 0-95% relative humidity, step interval 5%, sample interval 10 minutes.

[2] = Stability of crystal forms stored at different relative humidities (XRD); details: entire relative humidity range (0-95% RH)
Protocol: XRD patterns were obtained for samples of F-I and F-III stored at different relative humidities (0, 22, 50, and 80%). There is a gradual shifting of the initial (0% RH) F-III peaks at about 13.8, 17.6, 18.0, 20.5 and 24.0° in 2θ as well as slight shifting of less intense peaks, as the relative humidity is increased. These observed changes in the XRD patterns of F-III indicate that the unit cell dimensions are changing, presumably to accommodate weakly held water molecules as the relative humidity is increased.
A similar experiment was carried out on F-I to determine whether varying the relative humidity would have a similar effect on its lattice (0, 25, 52, 73 and 95% RH). Very slight shifting of the 0% RH peaks at about 7.7, 18.3, 18.5, 20.5, 20.8° in 2θ is observed as the relative humidity is increased. […] The shifting of peaks in the XRD patterns of F-I is less dramatic than the peak shifts observed as F-III was exposed to different relative humidities.
XRD patterns were obtained on a Siemens D5000 X-ray powder diffractometer, equipped with a CuKα source (λ=1.54056 Å) and a Kevex solid-state detector, operating at 50 kV and 40 mA. Each sample was scanned between 4° and 35° in 2θ. Samples were allowed to equilibrate for at least 30 minutes at the desired temperature and/or relative humidity before data collection.

[3] = Aqueous solubility and dissolution rate comparison of crystal forms; details: comparison of the two forms
[4] = Stability at ambient temperature relative to arzoxifene prepared per '474; details: relative to arzoxifene produced by the procedures taught in '474

COc1ccc(-c2sc3cc(O)ccc3c2Oc2ccc(OCCN3CCCCC3)cc2)cc1.Cl [F-III, 6-hydroxy-3-(4-[2-(piperidin-1-yl)ethoxy]phenoxy)-2-(4-methoxyphenyl)benzo[b]thiophene hydrochloride]
water content at ambient relative humidity ([1]; about 50% RH): about 3.0%
water content at ambient relative humidity, in moles of water ([1]; about 50% RH): about 0.85 moles
water equivalent of the initial weight gain ([1]; approximately 5% RH): approximately 0.5 mole
immediate weight gain (moisture) upon initial exposure ([1]; approximately 5% RH, 25° C., after vacuum drying at 60° C.): 1.7%
stability over relative humidity range [2]: stable over the entire relative humidity range
aqueous solubilities (F-I versus F-III) [3]: comparable
dissolution rates (F-I versus F-III) [3]: comparable
stability at ambient temperature [4]: more stable at ambient temperature
